Measurements from patent publication US6274715A, “Tricyclic erythromycin derivatives” (priority 1997, dated 2001).

Experiments:
Assay type in all cases: cell-based
ESCHERICHIA COLI JUHL = details: E. coli JUHL; BHI agar; unit assumed
[1] = test system: PSEUDOMONAS AERUGINOSA DPHD-2862; test: In vitro antibacterial activity, MIC, BHI agar dilution; details: P. aeruginosa DPHD-2862, unit assumed
ESCHERICHIA COLI H560 = test: as above; details: E. coli H560, unit assumed
ESCHERICHIA COLI DC-2 = test: as above; details: E. coli DC-2, unit assumed
[2] = test system: STREPTOCOCCUS PYOGENES PIU 2548; test: as above; details: S. pyogenes PIU 2548, unit assumed
PSEUDOMONAS CEPACIA 296I = test: as above; details: P. cepacia 296I, unit assumed
[3] = test system: STAPHYLOCOCCUS AUREUS A-5278; test: as above; details: S. aureus A-5278, unit assumed
M[…] ATCC 9341 = test: as above; details: M. luteus ATCC 9341, unit assumed
Outline: (§1)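 Agar dilution in BHI: plates inoculated with 1:100 dilutions of organisms (1:10 for Micrococcus and Streptococcus), incubated 20-24 h at 35-37° C, then inspected for the lowest inhibitory concentration against a drug-free growth control.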

EN[…] ATCC 8043 = test: as above; details: E. faecium ATCC 8043, unit assumed
Outline: as §1

STR[…] 508 = test: as above; details: S. agalactiae CMX 508, unit assumed
Outline: as §1

M[…] ATCC 4698 = test: as above; details: M. luteus ATCC 4698, unit assumed
Outline: as §1

ESCHERICHIA COLI SS = test: as above; details: E. coli SS, unit assumed
[4] = test system: PSEUDOMONAS AERUGINOSA K799/61; test: as above; details: P. aeruginosa K799/61, unit assumed
[5] = test system: STAPHYLOCOCCUS AUREUS ATCC 6538P; test: as above; details: S. aureus ATCC 6538P, 35-37° C., 20 to 24 hours, unit assumed
[6] = test system: STREPTOCOCCUS PYOGENES EES61; test: as above; details: S. pyogenes EES61, unit assumed
[7] = test system: ACINETOBACTER CALCOACETICUS CMX 669; test: as above; details: A. calcoaceticus CMX 669, unit assumed
[8] = test system: ENTEROBACTER AEROGENES ATCC 13048; test: as above; details: E. aerogenes ATCC 13048, unit assumed
[9] = test system: PSEUDOMONAS AERUGINOSA K799/WT; test: as above; details: P. aeruginosa K799/WT, unit assumed
[10] = test system: PSEUDOMONAS AERUGINOSA 5007; test: as above; details: P. aeruginosa 5007, unit assumed
[11] = test system: STREPTOCOCCUS PYOGENES 930; test: as above; details: S. pyogenes 930, unit assumed
[12] = test system: STAPHYLOCOCCUS AUREUS 1775; test: as above; details: S. aureus 1775, unit assumed
[13] = test system: PROVIDENCIA STUARTII CMX 640; details: P. stuartii CMX 640; BHI agar; unit assumed
[14] = test system: PSEUDOMONAS AERUGINOSA DPHD-5263; test: In vitro antibacterial activity, MIC, BHI agar dilution; details: P. aeruginosa DPHD-5263, unit assumed
CANDIDA ALBICANS CCH 442 = test: as above; details: C. albicans CCH 442, unit assumed
[15] = test system: MYCOBACTERIUM SMEGMATIS ATCC 114; test: as above; details: M. smegmatis ATCC 114, unit assumed
[16] = test system: STAPHYLOCOCCUS AUREUS CMX 642A; test: as above; details: S. aureus CMX 642A, unit assumed
[17] = test system: STAPHYLOCOCCUS EPIDERMIDIS 3519; details: S. epidermidis 3519; BHI agar; unit assumed
[18] = test system: STAPHYLOCOCCUS AUREUS NCTC10649M; test: In vitro antibacterial activity, MIC, BHI agar dilution; details: S. aureus NCTC10649M, unit assumed
ESCHERICHIA COLI KNK 437 = details: E. coli KNK 437; BHI agar; unit assumed
[19] = test system: STREPTOCOCCUS BOVIS A-5169; test: In vitro antibacterial activity, MIC, BHI agar dilution; details: S. bovis A-5169, unit assumed
[20] = test system: PSEUDOMONAS AERUGINOSA BMH10; test: as above; details: P. aeruginosa BMH10, unit assumed
[21] = test system: STAPHYLOCOCCUS AUREUS CMX 553; test: as above; details: S. aureus CMX 553, unit assumed
[22] = test system: KLEBSIELLA PNEUMONIAE ATCC 8045; test: as above; details: K. pneumoniae ATCC 8045, unit assumed
[23] = test system: STAPHYLOCOCCUS AUREUS A5177; test: as above; details: S. aureus A5177, unit assumed

Measured: MIC

CC[C@H]1OC(=O)[C@H](C)C(=O)[C@H](C)[C@@H](O[C@@H]2O[C@H](C)C[C@H](N(C)C)[C@H]2O)[C@](C)(OC)C[C@@H](C)C2=N[C@H](COCc3ccccc3Cl)CN3C(=O)O[C@@]1(C)[C@H]3[C@H]2C [Example 78]
0.78 µg/mL: [15] | [16] | [21]
≤ 0.005 µg/mL: STR[…] 508 | [6] | [19]
0.05 µg/mL: EN[…] ATCC 8043
25 µg/mL: [11]
3.1 µg/mL: [4]
0.2 µg/mL: [2]
0.02 µg/mL: M[…] ATCC 9341
100 µg/mL: [3] | [7] | [12] | CANDIDA ALBICANS CCH 442
> 100 µg/mL: ESCHERICHIA COLI JUHL | [1] | ESCHERICHIA COLI H560 | ESCHERICHIA COLI DC-2 | PSEUDOMONAS CEPACIA 296I | [8] | [9] | [10] | [13] | [14] | ESCHERICHIA COLI KNK 437 | [20] | [22]
0.39 µg/mL: M[…] ATCC 4698 | [5] | [17] | [18]
1.56 µg/mL: ESCHERICHIA COLI SS

CC[C@H]1OC(=O)[C@H](C)C(=O)[C@H](C)[C@@H](O[C@@H]2O[C@H](C)C[C@H](N(C)C)[C@H]2O)[C@](C)(OC)C[C@@H](C)C2=NC[C@@H](C)N3C(=O)O[C@@]1(C)[C@H]3[C@H]2C [Example 9]
0.01 µg/mL: STR[…] 508 | [6]
100 µg/mL: [9] | ESCHERICHIA COLI KNK 437 | [20]
0.2 µg/mL: [18]
0.05 µg/mL: EN[…] ATCC 8043
12.5 µg/mL: [7]
25 µg/mL: ESCHERICHIA COLI H560 | ESCHERICHIA COLI DC-2 | [8] | [22]
6.2 µg/mL: [4]
0.39 µg/mL: [2] | [23] | M[…] ATCC 4698 | [5] | [16] | [17] | [21]
3.1 µg/mL: [15]
0.1 µg/mL: M[…] ATCC 9341
> 100 µg/mL: [1] | PSEUDOMONAS CEPACIA 296I | [3] | [10] | [11] | [12] | [13] | [14] | CANDIDA ALBICANS CCH 442

CC[C@H]1OC(=O)[C@H](C)C(=O)[C@H](C)[C@@H](O[C@@H]2O[C@H](C)C[C@H](N(C)C)[C@H]2O)[C@](C)(OC)C[C@@H](C)C2=NC[C@H](CO)N3C(=O)O[C@@]1(C)[C@H]3[C@H]2C [Example 63]
50 µg/mL: ESCHERICHIA COLI H560
0.78 µg/mL: [23] | M[…] ATCC 4698 | ESCHERICHIA COLI SS | [5] | [17] | [18]
100 µg/mL: [7]
6.2 µg/mL: [15]
> 100 µg/mL: [1] | ESCHERICHIA COLI DC-2 | PSEUDOMONAS CEPACIA 296I | [3] | [8] | [9] | [10] | [11] | [12] | [13] | [14] | CANDIDA ALBICANS CCH 442 | ESCHERICHIA COLI KNK 437 | [20] | [22]
0.05 µg/mL: [19]
1.56 µg/mL: [16] | [21]
0.1 µg/mL: [6]
0.2 µg/mL: M[…] ATCC 9341 | EN[…] ATCC 8043 | STR[…] 508

CC[C@H]1OC(=O)[C@H](C)C(=O)[C@H](C)[C@@H](O[C@@H]2O[C@H](C)C[C@H](N(C)C)[C@H]2O)[C@](C)(OC)C[C@@H](C)C2=N[C@H](COCc3ccc(Cl)cc3)CN3C(=O)O[C@@]1(C)[C@H]3[C@H]2C [Example 79]
0.01 µg/mL: [6] | [19]
> 100 µg/mL: ESCHERICHIA COLI JUHL | [1] | ESCHERICHIA COLI H560 | ESCHERICHIA COLI DC-2 | [8] | [9] | [10] | [13] | [14] | ESCHERICHIA COLI KNK 437 | [20] | [22]
3.1 µg/mL: [4]
50 µg/mL: [11]
≤ 0.005 µg/mL: STR[…] 508
0.05 µg/mL: M[…] ATCC 9341
1.56 µg/mL: ESCHERICHIA COLI SS
0.78 µg/mL: [15]
0.39 µg/mL: [2] | M[…] ATCC 4698 | [5] | [16] | [17] | [18] | [21]
100 µg/mL: PSEUDOMONAS CEPACIA 296I | [3] | [7] | [12] | CANDIDA ALBICANS CCH 442
0.1 µg/mL: EN[…] ATCC 8043
